In patent publication US20260053861A1, “CELL COMPOSITIONS AND METHODS OF USING THE SAME” (THE REGENTS OF THE UNIVERSITY OF CALIFORNIA, priority 2022, published 2026):
Structures can show the parent of a compound that is named as a salt. Where two headings read alike, the source gives them in different places.

Tested on: hPSC-SCs
[1] = HTS viability of hPSC-SCs in the presence of 30 mM glucose, Prestwick library, Table S4

| Compound | z.score.t [1] | z.score.t |
| --- | --- | --- |
| CO[C@@]1(NC(=O)C2SC(=C(C(N)=O)C(=O)O)S2)C(=O)N2C(C(=O)O)=C(CSc3nnnn3C)CS[C@@H]21 (some centres unmarked) [Cefotetan] | −0.4942 |  |
| Cn1cnc([N+](=O)[O-])c1Sc1ncnc2nc[nH]c12 [Azathioprine] | 0.4486 |  |
| C[C@H]1CC[C@]2(NC1)O[C@H]1C[C@H]3[C@@H]4CC[C@H]5C[C@@H](O[C@@H]6O[C@H](CO)[C@H](O[C@@H]7O[C@H](CO)[C@@H](O)[C@H](O[C@@H]8OC[C@@H](O)[C@H](O)[C@H]8O)[C@H]7O[C@@H]7O[C@H](CO)[C@@H](O)[C@H](O)[C@H]7O)[C@H](O)[C@H]6O)CC[C@]5(C)[C@H]4CC[C@]3(C)[C@H]1[C@@H]2C [Tomatine] |  | −1.873 |
| CCN(CC)Cc1cc(Nc2ccnc3cc(Cl)ccc23)ccc1O [Amodiaquin dihydrochloride dihydrate] | −1.767 |  |
| CC(C(=O)O)c1cccc(C(=O)c2ccccc2)c1 (centres unmarked) [Ketoprofen] | −1.014 |  |
| Cc1noc(NS(=O)(=O)c2ccc(N)cc2)c1C [Sulfisoxazole] | 0.1556 |  |
| C=CC1=C(C(=O)O)N2C(=O)[C@@H](NC(=O)/C(=N\OCC(=O)O)c3csc(N)n3)[C@H]2SC1 [Cefixime] | 0.5046 |  |
| O=C(COc1ccc(Cl)cc1)N1CCN(Cc2ccc3c(c2)OCO3)CC1 [Fipexide hydrochloride] | 0.5179 |  |
| O=C(CCCN1CCC(n2c(O)nc3ccccc32)CC1)c1ccc(F)cc1 [Benperidol] | 0.1556 |  |
| COCCc1ccc(OCC(O)CNC(C)C)cc1.COCCc1ccc(OCC(O)CNC(C)C)cc1.O=C(O)C(O)C(O)C(=O)O (racemic) [Metoprolol-(+, −) (+)-tartrate salt] | 1.223 |  |
| CCCCN1CCCCC1C(=O)Nc1c(C)cccc1C (centres unmarked) [Bupivacaine hydrochloride] | −0.3156 |  |
| [H]/N=C(/N)N[C@H]1[C@H](O)[C@@H](O)[C@H](O[C@@H]2O[C@@H](C)[C@](O)(C=O)[C@H]2O[C@@H]2O[C@@H](CO)[C@H](O)[C@@H](O)[C@@H]2NC)[C@@H](N/C(N)=N\[H])[C@@H]1O [Streptomycin sulfate] | −1.359 |  |
| NS(=O)(=O)c1cc2c(cc1C(F)(F)F)NCNS2(=O)=O [Hydroflumethiazide] | −0.1092 |  |
| CCN(CC)CCNC(=O)c1ccc(N)cc1 [Procainamide hydrochloride] | −0.2904 |  |
| CN1CCCN=C1/C=C/c1cccc(O)c1.O=C(O)c1cc2ccccc2c(Cc2c(O)c(C(=O)O)cc3ccccc23)c1O [Oxantel pamoate] | −0.3936 |  |
| CC(=O)OCC(=O)[C@H]1CC[C@H]2[C@@H]3CC[C@H]4C[C@H](O)CC[C@]4(C)[C@H]3C(=O)C[C@]12C [Alfadolone acetate] |  | 0.3651 |
| COc1ccc2c(c1)[nH]c1c(C)nccc12.Cl [Harmine hydrochloride] |  | −1.122 |
| COc1ccc2cc([C@@H](C)C(=O)[O-])ccc2c1.[Na+] [(R) -Naproxen sodium salt] | −0.3895 |  |
| Cc1cc(N)c2ccccc2[n+]1CCCCCCCCCC[n+]1c(C)cc(N)c2ccccc21 [Dequalinium dichloride] | 0.5046 |  |
| CCCCOc1ccc(C(=O)CCN2CCCCC2)cc1 [Dyclonine hydrochloride] | −0.6492 |  |
| C[C@@H]1[C@H](O)[C@@H](C)/C=C/C=C/C=C/C=C/C=C/C=C/C=C/[C@H](O[C@@H]2O[C@H](C)[C@@H](O)[C@H](N)[C@@H]2O)C[C@@H]2O[C@](O)(C[C@@H](O)C[C@@H](O)[C@H](O)CC[C@@H](O)C[C@@H](O)CC(=O)O[C@H]1C)C[C@H](O)[C@H]2C(=O)O [Amphotericin B] | 0.7312 |  |
| c1ccc(CC2=NCCN2)cc1 [Tolazoline hydrochloride] | 1.268 |  |
| CN1CCCC(CC2c3ccccc3Sc3ccccc32)C1 (centres unmarked) [Metixene hydrochloride] | −0.9654 |  |
| Cc1cc(CC(=O)O)n(C)c1C(=O)c1ccc(Cl)cc1 [Zomepirac sodium salt] | −0.9042 |  |

| Compound | z.score.t [1] | z.score.t |
| --- | --- | --- |
| Oc1ccc(OCc2ccccc2)cc1 [Monobenzone] | 0.557 |  |
| Pridinol methanesulfonate salt |  | −0.7183 |
| CC(=O)O[C@H]1C[C@H](O[C@H]2[C@@H](O)C[C@H](O[C@H]3[C@@H](O)C[C@H](O[C@H]4CC[C@@]5(C)[C@H](CC[C@@H]6[C@@H]5C[C@@H](O)[C@]5(C)[C@@H](C7=CC(=O)OC7)CC[C@]65O)C4)O[C@@H]3C)O[C@@H]2C)O[C@H](C)[C@H]1O[C@@H]1O[C@H](CO)[C@@H](O)[C@H](O)[C@H]1O [Lanatoside C] |  | −2.334 |
| O=C(O)COCCN1CCN(C(c2ccccc2)c2ccc(Cl)cc2)CC1 (centres unmarked) [Cetirizine dihydrochloride] | −0.3112 |  |
| COc1ccc(OC)c(C(O)CNC(=O)CN)c1 (centres unmarked) [Midodrine hydrochloride] | 0.5856 |  |
| COc1ccc(CC2c3cc(OC)c(OC)cc3CCN2C)cc1OC (racemic) [Laudanosine (R,S)] |  | −0.3319 |
| Cc1cnc(C(=O)NCCc2ccc(S(=O)(=O)NC(=O)NC3CCCCC3)cc2)cn1 [Glipizide] | 1.43 |  |
| CC[C@H]1CN2CCc3cc(OC)c(OC)cc3[C@@H]2C[C@@H]1C[C@H]1NCCc2cc(OC)c(OC)cc21 [Emetine dihydrochloride] | −1.991 |  |
| C=C(C)[C@@H]1CC[C@]2(C(=O)O)CC[C@]3(C)[C@H](CC[C@@H]4[C@@]5(C)CC[C@H](O)C(C)(C)[C@@H]5CC[C@]43C)[C@@H]12 [Betulinic acid] | −1.832 |  |
| CC(=O)OCC1=C(C(=O)O)N2C(=O)[C@@H](NC(=O)Cc3cccs3)[C@H]2SC1 [Cephalothin sodium salt] | −1.359 |  |
| O=C1NCC2(CCN(CCc3ccccc3)CC2)O1 [Fenspiride hydrochloride] | −0.01953 |  |
| Nc1nc(O)c2[nH]nnc2n1 [Azaguanine-8] | −1.365 |  |
| CCN(CC)C(C)CN1c2ccccc2Sc2ccccc21 (centres unmarked) [Ethopropazine hydrochloride] | 0.2139 |  |
| OC[C@H]1O[C@@H](Oc2ccc(O)cc2)[C@H](O)[C@@H](O)[C@@H]1O [Arbutin] | −0.2611 |  |
| Nc1ccc(/N=N/c2ccccc2)c(N)n1 [Phenazopyridine hydrochloride] | 1.999 |  |
| CN1CCN(C2=Nc3ccccc3Oc3ccc(Cl)cc32)CC1 [Loxapine succinate] | −0.2278 |  |
| C#C[C@]1(O)CC[C@H]2[C@@H]3CCC4=CC(=O)CC[C@]4(C)[C@H]3CC[C@@]21C [Ethisterone] |  | 0.2916 |
| CN1CCCN(C(c2ccccc2)c2ccc(Cl)cc2)CC1 (centres unmarked) [Homochlorcyclizine dihydrochloride] |  | −1.66 |
| Cc1cccc(C)c1NC(=O)C(C)N (centres unmarked) [Tocainide hydrochloride] | 0.8938 |  |
| COc1cc(C(=O)OC2CC3CCC(C2)N3C)ccc1O (centres unmarked) [Fillalbin] | 0.5365 |  |
| CC1(C)O[C@@H]2C[C@H]3[C@@H]4CCC5=CC(=O)CC[C@]5(C)[C@@]4(F)[C@@H](O)C[C@]3(C)[C@]2(C(=O)CCl)O1 [Halcinonide] | 1.238 |  |
| CN1CCC2=C[C@H](O)[C@H]3OC(=O)c4cc5c(cc4[C@H]3[C@@H]21)OCO5 [Hippeastrine hydrobromide] |  | 1.178 |
| CC1=C(C(=O)O)N2C(=O)[C@@H](NC(=O)[C@H](N)c3ccccc3)[C@H]2SC1 [Cephalexin monohydrate] | 1.08 |  |
| Clc1ccc2c(c1)C(N1CCNCC1)=Nc1ccccc1O2 [Amoxapine] | −0.09426 |  |

| Compound | z.score.t [1] | z.score.t |
| --- | --- | --- |
| Clc1ccccc1C(c1ccccc1)(c1ccccc1)n1ccnc1 [Clotrimazole] | −1.91 |  |
| CN(C)CCn1nnnc1SCC1=C(C(=O)O)N2C(=O)[C@@H](NC(=O)Cc3csc(N)n3)[C@H]2SC1 [Cefotiam hydrochloride] | −1.122 |  |
| O=C(CCCN1CCC2(CC1)C(=O)NCN2c1ccccc1)c1ccc(F)cc1 [Spiperone] | 0.09999 |  |
| CNCCCC1c2ccccc2C=Cc2ccccc21 [Protriptyline hydrochloride] | −0.3678 |  |
| CC(=O)OCC(=O)NCCCOc1cccc(CN2CCCCC2)c1 [Roxatidine Acetate HCl] | 1.139 |  |
| CC(C)COCC(CN(Cc1ccccc1)c1ccccc1)N1CCCC1 (centres unmarked) [Bepridil hydrochloride] | −0.5726 |  |
| Antimycin A |  | −1.787 |
| CN1C(=O)OC(C)(C)C1=O [Trimethadione] | 1.08 |  |
| CN1CCC(=C2c3ccccc3CC(=O)c3sccc32)CC1 [Ketotifen fumarate] | −0.7415 |  |
| COC(=O)[C@H]1[C@H]2C[C@@H]3c4[nH]c5cc(OC)ccc5c4CCN3C[C@H]2C[C@@H](OC(=O)c2cc(OC)c(OC)c(OC)c2)[C@@H]1OC [Reserpine] | −1.042 |  |
| CC(=O)c1ccc2c(c1)N(CCCN(C)C)c1ccccc1S2.O=C(O)/C=C\C(=O)O [Acetopromazine maleate salt] | 0.1979 |  |
| CN1CCC(=C2c3ccccc3C=Cc3ccccc32)CC1 [Cyproheptadine hydrochloride] | 0.4486 |  |
| Clc1ccc(COC(Cn2ccnc2)c2ccc(Cl)cc2Cl)cc1 (centres unmarked) [Econazole nitrate] | −1.834 |  |
| CC(C)c1c(CN(C)C(C)Cc2ccccc2)n(C)n(-c2ccccc2)c1=O (centres unmarked) [Famprofazone] |  | −1.288 |
| C(=C\c1ccccc1)/CN1CCN(C(c2ccccc2)c2ccccc2)CC1 [Cinnarizine] | −0.8513 |  |
| NC[C@H]1O[C@H](O[C@H]2[C@H](O[C@@H]3O[C@H](CO)[C@@H](O)[C@H]3O)[C@@H](O)[C@H](N)C[C@@H]2N)[C@H](N)[C@@H](O)[C@@H]1O [Ribostamycin sulfate salt] | −0.7757 |  |
| NS(=O)(=O)c1cc2c(cc1Cl)N=CNS2(=O)=O [Chlorothiazide] | 1.171 |  |
| Cc1ccc(N(CC2=NCCN2)c2cccc(O)c2)cc1 [Phentolamine hydrochloride] | −0.1241 |  |
| Bromocryptine mesylate |  | −1.272 |
| NC(N)=Nc1nc(CSCCC(N)=NS(N)(=O)=O)cs1 [Famotidine] | 1.191 |  |
| Clofilium tosylate | −0.6227 |  |
| COc1ccc([C@@H]2CC(=O)c3c(O)cc(O)cc3O2)cc1O [Hesperetin] | 1.785 |  |
| CCCC1C(=O)N2C(N(C)C)=Nc3ccc(C)cc3N2C1=O (centres unmarked) [Azapropazone] | 1.176 |  |
